Results on 31 compounds are retold here after patent US6875760B2 (Novo Nordisk A/S, priority 1999, dated 2005).

What is called IC50 is the concentration that gives 50% inhibition.

T1 sequence (P47871 26-477): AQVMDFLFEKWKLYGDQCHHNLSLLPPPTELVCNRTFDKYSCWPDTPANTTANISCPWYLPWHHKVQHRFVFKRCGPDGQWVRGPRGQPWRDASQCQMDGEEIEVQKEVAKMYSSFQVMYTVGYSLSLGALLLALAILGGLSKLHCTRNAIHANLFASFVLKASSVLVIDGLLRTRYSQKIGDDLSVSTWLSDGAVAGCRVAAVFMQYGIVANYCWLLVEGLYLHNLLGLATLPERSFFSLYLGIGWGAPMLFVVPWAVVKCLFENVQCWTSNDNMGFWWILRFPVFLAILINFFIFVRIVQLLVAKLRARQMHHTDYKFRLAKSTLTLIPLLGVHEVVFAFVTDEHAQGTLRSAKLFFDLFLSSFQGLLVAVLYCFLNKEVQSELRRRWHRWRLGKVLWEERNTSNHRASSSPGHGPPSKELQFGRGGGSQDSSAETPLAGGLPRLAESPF

One assay concerns the target T1, human glucagon receptor (Homo sapiens, UniProt P47871).
T1 construct: expressed in transfected cells; host or cells: BHK (baby hamster kidney) cells
Kind of assay: Glucagon Binding Assay (III). Conditions: BHK cell membranes, WGA SPA beads, 125I-glucagon; read-out: Glu Bd Assay (III) IC50. The essentials: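 Membranes from BHK cells transfected with the human receptor, prepared at 4 °C, were used in a WGA-bead scintillation proximity binding format. Plates were shaken for 4 hours, left to settle 8–48 hours and then counted. Non-specific binding was defined with 500 nM glucagon.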
In the case of `O=C(Nc1nn[nH]n1)c1ccc(CN(C(=O)Nc2cccc(SC(F)(F)F)c2)c2ccc(C3CCCCC3)cc2)cc1` [Example 278, 4-[1-(4-Cyclohexylphenyl)-3-(3-trifluoromethylsulfanylphenyl)ureidomethyl]-N-(2H-tetrazol-5-yl)benzamide], the IC50 is 88 nM.
Still for that read-out and setting: as for `O=C(Nc1nn[nH]n1)c1ccc(CN(C(=O)Nc2ccccc2OC(F)(F)F)c2ccc(C3CCCCC3)cc2)cc1` [Example 350, 4-[1-(4-Cyclohexylphenyl)-3-(2-trifluoromethoxyphenyl)ureidomethyl]-N-(2H-tetrazol-5-yl)benzamide], the figure is 271 nM.
Take `CC(C)(C)c1ccc(N(Cc2ccc(C(=O)Nc3nn[nH]n3)cc2)C(=O)Nc2cccc(C#N)c2)cc1` [Example 295, 4-[1-(4-tert-Butylphenyl)-3-(3-cyanophenyl)ureidomethyl]-N-(2H-tetrazol-5-yl)benzamide]: the IC50 stood at 279 nM.
On the same count and under the same terms, as for `CC(C)(C)c1ccc(N(Cc2ccc(C(=O)Nc3nn[nH]n3)cc2)C(=O)Nc2cccc(C(F)(F)F)c2)cc1` [Example 294, 4-[1-(4-tert-Butylphenyl)-3-(3-trifluoromethylphenyl)ureidomethyl]-N-(2H-tetrazol-5-yl)benzamide], the figure is 50 nM; as for `CC(C)(C)C1CCC(N(Cc2ccc(C(=O)NCCC(=O)O)cc2)C(=O)Nc2ccc(F)c(F)c2)CC1` (stereo not shown) [Example 72, 3-{4-[1-(4-tert-Butylcyclohexyl)-3-(3,4-difluorophenyl)ureidomethyl]benzoylamino}propionic acid], 673 nM; as for `O=C(Nc1nn[nH]n1)c1ccc(CN(C(=O)Cc2ccc(-c3ccccc3)cc2)c2ccc(C3CCCCC3)cc2)cc1` [Example 497, 4-{[(2-Biphenyl-4-yl-acetyl)-(4-cyclohexylphenyl)amino]methyl}-N-(2H-tetrazol-5-yl)benzamide], 589 nM.
Same read-out and setting: as for `Cc1ccc(S(C)(=O)=O)cc1NC(=O)N(Cc1ccc(C(=O)Nc2nn[nH]n2)cc1)c1ccc(C2CCCCC2)cc1` [Example 261, 4-[1-(4-Cyclohexylphenyl)-3-(5-methylsulfonyl-2-methylphenyl)ureidomethyl]-N-(2H-tetrazol-5-yl)benzamide], the figure is 302 nM; as for `CC(=O)c1ccc(NC(=O)N(Cc2ccc(C(=O)Nc3nn[nH]n3)cc2)C2CCC(C(C)(C)C)CC2)cc1` (stereo not shown) [Example 273, 4-[3-(4-Acetylphenyl)-1-(4-tert-butylcyclohexyl)ureidomethyl]-N-(2H-tetrazol-5-yl)benzamide], 319 nM.
`CS(=O)(=O)c1ccc(OC(=O)N(Cc2ccc(C(=O)Nc3nn[nH]n3)cc2)c2ccc(C3CCCCC3)cc2)cc1` [Example 622]: the IC50 amounted to 4600 nM.
Same read-out and setting: as for `CC(C)(C)c1ccc(N(Cc2ccc(C(=O)Nc3nn[nH]n3)cc2)C(=O)Nc2cccc(Cl)c2)cc1` [Example 296, 4-[1-(4-tert-Butylphenyl)-3-(3-chlorophenyl)ureidomethyl]-N-(2H-tetrazol-5-yl)benzamide], the figure is 304 nM; as for `N#Cc1ccc(NC(=O)N(Cc2ccc(C(=O)Nc3nn[nH]n3)cc2)c2ccc(C3=CCCCC3)cc2)cc1C(F)(F)F` [Example 599, 4-[3-(4-Cyano-3-trifluoromethylphenyl)-1-(4-cyclohex-1-enylphenyl)ureidomethyl]-N-(2H-tetrazol-5-yl)benzamide], 12 nM; as for `O=C(Nc1nn[nH]n1)c1ccc(CN(C(=O)NCc2ccccc2OC(F)(F)F)c2ccc(C3CCCCC3)cc2)cc1` [Example 348, 4-[1-(4-Cyclohexylphenyl)-3-(2-trifluoromethoxybenzyl)ureidomethyl]-N-(2H-tetrazol-5-yl)benzamide], 73 nM.
On the same count and under the same terms, the result for `CC(C)(C)c1ccc(N(Cc2ccc(C(=O)Nc3nn[nH]n3)cc2)C(=O)Nc2cccc(C(=O)O)c2)cc1` [Example 456, 3-{3-(4-tert-Butylphenyl)-3-[4-(2H-tetrazol-5-ylcarbamoyl)benzyl]ureido}benzoic acid] reads 2810 nM.
On the same count and under the same terms, as for `O=C(O)CCNC(=O)c1ccc(CN(C(=O)Nc2cc(C(F)(F)F)cc(C(F)(F)F)c2)C2CCC3(CCCCC3)CC2)cc1` [Example 614, 3-{4-[3-(3,5-Bis(trifluoromethyl)phenyl)-1-spiro[5.5]undec-3-ylureidomethyl]benzoylamino}propionic acid], the figure is 129 nM; as for `O=C(O)CCNC(=O)c1ccc(CN(C(=O)Nc2cc(C(F)(F)F)cc(C(F)(F)F)c2)C2CCc3ccccc3C2)cc1` (stereo not shown) [Example 86, 3-{4-[3-(3,5-Bis(trifluoromethyl)phenyl)-1-(1,2,3,4-tetrahydronaphthalen-2-yl)ureidomethyl]benzoylamino}propionic acid], 423 nM.
With `O=C(Nc1nn[nH]n1)c1ccc(CN(C(=O)Nc2ccc(OC(F)(F)F)cc2)c2ccc(C3CCCCC3)cc2)cc1` [Example 291, 4-[1-(4-Cyclohexylphenyl)-3-(4-trifluoromethoxyphenyl)ureidomethyl]-N-(2H-tetrazol-5-yl)benzamide], the IC50 is 42 nM.
Still for that read-out and setting: the result for `O=C(Nc1nn[nH]n1)c1ccc(CN(C(=O)/C=C/c2ccccc2Cl)c2ccc(N3CCCCC3)cc2)cc1` [Example 555, 4-{[[3-(2-Chlorophenyl)acryloyl]-(4-piperidin-1-ylphenyl)amino]methyl}-N-(2H-tetrazol-5-yl)benzamide] reads 604 nM; that for `O=C(Nc1nn[nH]n1)c1ccc(CN(C(=O)Nc2ccc(OC(F)(F)F)cc2)c2ccc(N3CCCCC3)cc2)cc1` [Example 318, 4-[1-(4-Piperidin-1-ylphenyl)-3-(4-trifluoromethoxyphenyl)ureidomethyl]-N-(2H-tetrazol-5-yl)benzamide], 247 nM; that for `CC1CCC(N(Cc2ccc(C(=O)NCCC(=O)O)cc2)C(=O)Nc2ccc(OCc3ccccc3)cc2)CC1` (stereo not shown) [Example 45, 3-{4-[3-(4-Benzyloxyphenyl)-1-(4-methylcyclohexyl)ureidomethyl]benzoylamino}propionic acid], 1190 nM.
Regarding `O=C(Nc1nn[nH]n1)c1ccc(CN(C(=O)Nc2ccccc2OC(F)(F)F)c2ccc(C3=CCCCC3)cc2)cc1` [Example 351, 4-[1-(4-Cyclohex-1-enylphenyl)-3-(2-trifluoromethoxyphenyl)ureidomethyl]-N-(2H-tetrazol-5-yl)benzamide], the IC50 stood at 368 nM.
The same measure, in the same setting: as for `CC(C)(C)C1CCC(N(Cc2ccc(C(=O)NCCC(=O)O)cc2)C(=O)Nc2ccccc2C(F)(F)F)CC1` (stereo not shown) [Example 25, 3-{4-[1-(4-tert-Butylcyclohexyl)-3-(2-trifluoromethylphenyl)ureidomethyl]benzoylamino}propionic acid], the figure is 935 nM; as for `CC1C(N(Cc2ccc(C(=O)NCCC(=O)O)cc2)C(=O)Nc2ccc(OC(F)(F)F)cc2)CC2CC1C2(C)C` (stereo not shown) [Example 65, 3-{4-[3-(4-Trifluoromethoxyphenyl)-1-(2,6,6-trimethylbicyclo[3.1.1]hept-3-yl)ureidomethyl]benzoylamino}propionic acid], 183 nM; as for `CCCCOC(=O)c1ccc(NC(=O)N(Cc2ccc(C(=O)NCCC(=O)O)cc2)CC(CC)CCCC)cc1` (stereo not shown) [Example 37, 4-[3-[4-(2-Carboxyethylcarbamoyl)benzyl]-3-(2-ethylhexyl)ureido]benzoic acid butyl ester], 145 nM.
`CC(C)c1ccc(NC(=O)N(Cc2ccc(C(=O)NCCC(=O)O)cc2)C2CCC(C(C)(C)C)CC2)cc1` (stereo not shown) [Example 29, 3-{4-[1-(4-tert-Butylcyclohexyl)-3-(4-isopropylphenyl)ureidomethyl]benzoyl}aminopropionic acid]: the IC50 came to 149 nM.
The same measure, in the same setting: as for `CC(C)(C)C1CCC(N(Cc2ccc(C(=O)NCCC(=O)O)cc2)C(=O)Nc2cccc(S(C)(=O)=O)c2)CC1` (stereo not shown) [Example 252, 3-{4-[1-(4-tert-Butylcyclohexyl)-3-(3-methylsulfonylphenyl)ureidomethyl]benzoylamino}propionic acid], the figure is 1320 nM; as for `O=C(O)CCNC(=O)c1ccc(CN(C(=O)Nc2ccc(OC(F)(F)F)cc2)[C@H]2CC[C@H](c3ccccc3)CC2)cc1` [Example 81, 3-{4-[1-(4-trans-Phenylcyclohexane)-3-(4-trifluoromethoxyphenyl)ureidomethyl]benzoylamino}propionic acid], 143 nM; as for `O=C(Nc1nn[nH]n1)c1ccc(CN(C(=O)Nc2cccc(S(=O)(=O)C(F)(F)F)c2)c2ccc(C3CCCCC3)cc2)cc1` [Example 303, 4-[1-(4-Cyclohexylphenyl)-3-(3-trifluoromethylsulfonylphenyl)ureidomethyl]-N-(2H-tetrazol-5-yl)benzamide], 53 nM.
On to `O=C(O)CCNC(=O)c1ccc(CN(C(=O)Oc2cc(Cl)cc(Cl)c2)c2ccc(C3CCCCC3)cc2)cc1` [Example 400, 3-(4-{[(4-Cyclohexylphenyl)-(3,5-dichlorophenoxycarbonyl)amino]methyl}benzoylamino)propionic acid], for which the IC50 amounted to 533 nM.
Take `O=C(Nc1nn[nH]n1)c1ccc(CN(C(=O)c2cccc([N+](=O)[O-])c2)c2ccc(C3CCCCC3)cc2)cc1` [Example 481, 4-{[(4-Cyclohexylphenyl)-(3-nitrobenzoyl)amino]methyl}-N-(2H-tetrazol-5-yl)benzamide]: the IC50 came to 1980 nM.

The same assay, now with this note: Glu Bd Assay (III) IC50 (nM), BHK cell membranes, WGA SPA beads, 125I-glucagon.
For `CC(C)(C)[C@H]1CC[C@@H](N(Cc2ccc(C(=O)NCCC(=O)O)cc2)C(=O)Nc2ccc(OC(F)(F)F)cc2)CC1` [Example 93, 3-{4-[1-(cis-4-tert-Butylcyclohexyl)-3-(4-trifluoromethoxy-phenyl)ureidomethyl]benzoylamino}propionic acid], the IC50 amounted to 47 nM.
Still for that read-out and setting: as for `CC(C)(C)[C@H]1CC[C@H](N(Cc2ccc(C(=O)NCCC(=O)O)cc2)C(=O)Nc2cc(Cl)cc(Cl)c2)CC1` [Example 255, 3-{4-[1-(trans-4-tert-Butylcyclohexyl)-3-(3,5-dichlorophenyl)ureidomethyl]benzoylamino}propionic acid], the figure is 80 nM.
